# “Also recorded” adds a separate entry of the source.
# Columns and labels:
# [1] = In vitro simulated GI digestion (INFOGEST, static), stability by RP-HPLC and LC-MS; type: in vitro ADME; settings: 37°C
# Method: In vitro simulated oral, gastric, and small intestinal digestion was adopted from standardized INFOGEST protocol ([Brodkorb et al., 2019]) in three independent replicates. The initial concentration of bacteriocins was selected in order to have sufficient quantity in the digestion mixture to conduct both activity assay by agar well diffusion and by RP-HPLC for quantification.
# The entire digestion procedure was performed at 37°C.
# Oral conditions: 5 mL of a 8 mg/mL bacteriocin solution (in water) were mixed with simulated salivary fluid [SSF: KCl 15.1 mM, KH2PO4 3.7 mM, NAHCO3 13.6 mM, MgCl2(H2O)6 0.15 mM, (NH4)2CO3 0.06 mM, HCl 1.1mM, CaCl2 (H2O)2 1.5 mM] in 1:1 (v/v) ratio, and the final solution was incubated for 2 min at 37°C.
# Gastric conditions: The sample from the oral condition was diluted in 1:1 (v/v) ratio with simulated gastric fluid [SGF: KCl 6.9 mM, KH2PO4 0.9 mM, NAHCO3 25 mM, NaCl 47.2 mM, MgCl2(H2O)6 0.12 mM, (NH4)2CO3 0.5 mM, HCl 15.6 mM, CaCl2 (H2O)2, 0.15 mM] containing pepsin (2000 U/mL in the gastric mixture), and lipase (60 U/mL in the gastric mixture). […]
# Small intestine conditions: Samples from gastric conditions were diluted in 1:1 (v/v) ratio with 20 mL of simulated intestinal fluid[SIF KCl 6.8 mM, KH2PO4 0.8 mM, NAHCO3 85 mM, NaCl 38.4 mM, MgCl2(H2O)6 0.33 Mm, HCl 8.4 mM, CaCl2 (H2O)2, 0.6 mM] containing bile salt (10 mmol/L in the final […] mixture) and pancreatin (100 U/mL in final digestion mixture) to acquire a final volume of 40 mL. […] Bacteriocins in the different samples were analyzed by analytical HPLC-UV and liquid-chromatography mass spectrometry (LC-MS/MS). […]
# The digestion mixtures were analyzed by LC-MS/MS on an ultra-high-performance LC system (Ultimate 3000 RSLC, Thermo Fisher Scientific) connected to high-resolution electrospray ionization – quadrupole – time of flight (ESI-Q-TOF) mass spectrometer (Maxis II ETD, Bruker Daltonics). […] Data-dependent LC-MS/MS data were acquired in positive ion mode in the mass range m/z 250–2500, using collision induced dissociation with collision energy calculated from m/z and charge states. […]
# [2] = system: Caco-2 cells; experiment: LDH release assay (membrane integrity); type: cell-based, human; settings: Caco-2, CytoTox-ONE LDH release, 0.4 to 400 μg/mL, 24 h (method: 48 h), 37°C, mean of three experiments
# Method: The human colonic adenocarcinoma (Caco-2) cells were purchased from ATCC. Cells were cultured in DMEM medium in a humidified atmosphere containing 5% CO2 at 37°C. For the LDH release assay, cells were seeded in 96 well flat bottom culture plates (1 × 10^4 cells/well). Caco-2 cells, which have been frequently used for permeability studies across the intestinal epithelium, were selected in this study for evaluating the cytotoxicity of bacteriocins and their interaction with intestinal epithelium during GI transit to determine their cytotoxicity.
# The CytoTox-ONE™ cytotoxicity assay kit (Promega, United States) was used to measure the LDH release. […] Lysis solution (Promega) was added in a 1:1 ratio to selected control wells to induce the maximal release of LDH and the plate was incubated for 5 min. […] Finally, stop solution was then added to each well, and absorbance was measured using a spectrophotometer (Tecan Spark 20M, Morrisville, NC, United States) at excitation/emission wavelengths of 560/590 nm. Each compound-treated value was blanked with the values of the control-treated cells and cytotoxicity was expressed as percentage of the maximal LDH release (lysis solution treated cells), calculated by the following formula: […]
structure (smiles),measurement,setting,value
C=C(NC(=O)[C@@H](NC(=O)[C@H](Cc1c[nH]cn1)NC(=O)[C@@H](NC(=O)[C@H](CO)NC(=O)[C@@H]1CS[C@@H](C)[C@H]2NC(=O)[C@H](C)NC(=O)[C@H](NC(=O)[C@H](CCCCN)NC(=O)[C@H](CCSC)NC(=O)[C@H](CC(N)=O)NC(=O)[C@@H]3CS[C@@H](C)[C@@H](NC(=O)[C@H](CCCCN)NC(=O)[C@@H]4CS[C@@H](C)[C@@H](NC(=O)[C@@H]5CSC[C@@H](NC(=O)/C(=C/C)NC(=O)[C@@H](N)[C@@H](C)CC)C(=O)N[C@@H]([C@@H](C)CC)C(=O)NC(=C)C(=O)N[C@@H](CC(C)C)C(=O)N5)C(=O)N5CCC[C@H]5C(=O)NCC(=O)N4)C(=O)NCC(=O)N[C@@H](C)C(=O)N[C@@H](CC(C)C)C(=O)N[C@@H](CCSC)C(=O)NCC(=O)N3)[C@H](C)SC[C@H](NC2=O)C(=O)N[C@@H](CC(N)=O)C(=O)N1)[C@@H](C)CC)C(C)C)C(=O)N[C@@H](CCCCN)C(=O)O [nisin Z],Stability in gastric conditions,"[1]; SGF with pepsin 2000 U/mL and lipase 60 U/mL, pH 3, 90 min, shaking, RP-HPLC and activity, three independent replicates",good gastric stability
same,Stability in small intestinal conditions,"[1]; SIF with bile salt 10 mmol/L and pancreatin 100 U/mL, pH 7, 2 h, RP-HPLC and activity, three independent replicates",significantly degraded; also recorded: completely degraded
same,Stability in the GI tract (whole simulated digestion),[1]; oral + gastric + small intestinal conditions,complete degradation
same,Membrane integrity (LDH release),[2],uncompromised

# From paper PMC8824275, “Gastrointestinal Stability and Cytotoxicity of Bacteriocins From Gram-Positive and Gram-Negative Bacteria: A Comparative in vitro Study” (Frontiers in Microbiology, 2022)
